# Laboratory results reported in patent publication US20020035061A1, “COMPOSITIONS AND METHODS FOR TREATING INFECTIONS USING CATIONIC PEPTIDES ALONE OR IN COMBINATION WITH ANTIBIOTICS” (priority 1996, published 2002).
# “And” between values parts separate entries of the source, which are not always exact repeats. Equal values may be shown once. Read-outs that look alike come from different tables or passages of the source.
# Key:
# Assay in all cases: microbe, parasite or virus in culture
# Assay type in all cases: cell-based
# [1] = tested on: bacterial isolates; settings: for FIC: peptide + Tobramycin
# [2] = tested on: inherently resistant microorganisms
# [3] = tested on: microorganisms with acquired resistance; settings: for MIC comb. (antibiotic agent): with MBI 29; for Peptide MIC Alone: Tobramycin section; for FIC: peptide + Tobramycin
# [4] = Acinetobacter baumannii, read-out: Tobramycin MIC Alone, A. baumannii ABI001
# [5] = Acinetobacter baumannii, read-out: Tobramycin MIC Alone, A. baumannii ABI002
# [6] = Pseudomonas aeruginosa, read-out: Tobramycin MIC Alone, P. aeruginosa PA008
# [7] = Pseudomonas aeruginosa, read-out: Tobramycin MIC Alone, P. aeruginosa PA022
# [8] = Pseudomonas aeruginosa, read-out: Tobramycin MIC Alone, P. aeruginosa PA025
# [9] = Pseudomonas aeruginosa, read-out: Tobramycin MIC Alone, P. aeruginosa PA026
# [10] = Pseudomonas aeruginosa, read-out: Tobramycin MIC Alone, P. aeruginosa PA030
# [11] = Pseudomonas aeruginosa, read-out: Tobramycin MIC Alone, P. aeruginosa PA032
# [12] = Staphylococcus epidermidis, read-out: Tobramycin MIC Alone, S. epidermidis SE068
# [13] = Staphylococcus epidermidis, read-out: Tobramycin MIC Alone, S. epidermidis SE072
# [14] = Staphylococcus epidermidis, read-out: Tobramycin MIC Alone, S. epidermidis SE073
# [15] = Staphylococcus epidermidis, read-out: Tobramycin MIC Alone, S. epidermidis SE080
# [16] = Stenotrophomonas maltophilia, read-out: Tobramycin MIC Alone, S. maltophilia SMA029
# [17] = Stenotrophomonas maltophilia, read-out: Tobramycin MIC Alone, S. maltophilia SMA030
# [18] = Stenotrophomonas maltophilia, read-out: Tobramycin MIC Alone, S. maltophilia SMA031
# [19] = Stenotrophomonas maltophilia, read-out: Tobramycin MIC Alone, S. maltophilia SMA032
# [20] = S. maltophilia (strain code stands in r800, not shown)
compound,measurement,setting,value
NC[C@H]1O[C@H](O[C@H]2[C@H](O)[C@@H](O[C@H]3O[C@H](CO)[C@@H](O)[C@H](N)[C@H]3O)[C@H](N)C[C@@H]2N)[C@H](N)C[C@@H]1O [Tobramycin],Tobramycin MIC Alone,[1]; A. baumannii ABI002,4 µg/mL
same,MIC,[1]; [4],16 µg/mL
same,MIC,[1]; [5],8 µg/mL
same,MIC,"[1]; Burkholderia cepacia, read-out: Tobramycin MIC Alone, B. cepacia BC001",128 µg/mL
same,MIC,"[1]; Burkholderia cepacia, read-out: Tobramycin MIC Alone, B. cepacia BC002",> 128 µg/mL
same,MIC,"[1]; Escherichia coli, read-out: Tobramycin MIC Alone, E. coli ECO004",2 µg/mL
same,MIC,"[1]; Escherichia coli, read-out: Tobramycin MIC Alone, E. coli ECO006",8 µg/mL
same,MIC,"[1]; Klebsiella pneumoniae, read-out: Tobramycin MIC Alone, K. pneumoniae KP008",0.5 µg/mL
same,MIC,[1]; [6],32 µg/mL
same,MIC,[1]; [7],8 µg/mL
same,MIC,[1]; [8],32 µg/mL
same,MIC,[1]; [9],8 µg/mL
same,MIC,"[1]; Pseudomonas aeruginosa, read-out: Tobramycin MIC Alone, P. aeruginosa PA028",32 µg/mL
same,MIC,"[1]; Pseudomonas aeruginosa, read-out: Tobramycin MIC Alone, P. aeruginosa PA029",32 µg/mL
same,MIC,[1]; [10],16 µg/mL
same,MIC,[1]; [11],16 µg/mL
same,Tobramycin MIC Alone,[1]; S. haemolyticus SHA005,4 µg/mL
same,Tobramycin MIC Alone,[1]; S. maltophilia SMA031,>128 µg/mL
same,MIC,"[1]; Staphylococcus aureus, MRSA, read-out: Tobramycin MIC Alone, S. aureus SA014 (also SA014 MRSA)",> 128 µg/mL
same,MIC,"[1]; Staphylococcus aureus, MRSA, read-out: Tobramycin MIC Alone, S. aureus SA014 MRSA",> 128 µg/mL
same,MIC,"[1]; Staphylococcus aureus, MRSA, read-out: Tobramycin MIC Alone, S. aureus SA018 MRSA",64 µg/mL
same,MIC,"[1]; Staphylococcus aureus, MRSA, read-out: Tobramycin MIC Alone, S. aureus SA025 (also SA025 MRSA)",> 128 µg/mL
same,MIC,"[1]; Staphylococcus epidermidis, read-out: Tobramycin MIC Alone, S. epidermidis SE067",> 128 µg/mL
same,MIC,[1]; [12],> 128 µg/mL
same,MIC,[1]; [13],> 128 µg/mL
same,MIC,[1]; [14],> 128 µg/mL
same,MIC,[1]; [15],32 µg/mL
same,MIC,"[1]; Staphylococcus haemolyticus, read-out: Tobramycin MIC Alone, S. haemolyticus SHA001",4 µg/mL
same,MIC,"[1]; Staphylococcus haemolyticus, read-out: Tobramycin MIC Alone, S. haemolyticus SHA005",8 µg/mL
same,MIC,"[1]; Stenotrophomonas maltophilia, read-out: Tobramycin MIC Alone, S. maltophilia (strain code stands in r800, not shown)",128 µg/mL
same,MIC,"[1]; Stenotrophomonas maltophilia, read-out: Tobramycin MIC Alone, S. maltophilia SMA027",32 µg/mL
same,MIC,[1]; [16],128 µg/mL
same,MIC,[1]; [17],128 µg/mL
same,MIC,[1]; [18],128 µg/mL
same,MIC,[1]; [19],128 µg/mL
same,MIC,"[1]; Stenotrophomonas maltophilia, read-out: Tobramycin MIC Alone, S. maltophilia SMA035",32 µg/mL
same,MIC,"[2]; Staphylococcus aureus, read-out: Tobramycin MIC + Peptide, S. aureus, peptide MBI 11A1CN",0.125 µg/mL
same,MIC,"[2]; Staphylococcus aureus, read-out: Tobramycin MIC + Peptide, S. aureus, peptide MBI 11D18CN",4 µg/mL
same,MIC,"[2]; Staphylococcus aureus, read-out: Tobramycin MIC + Peptide, S. aureus, peptide MBI 11F3CN",2 µg/mL
same,MIC,"[2]; Staphylococcus aureus, read-out: Tobramycin MIC + Peptide, S. aureus, peptide MBI 11G13CN",0.125 µg/mL
same,MIC,"[2]; Staphylococcus aureus, read-out: Tobramycin MIC + Peptide, S. aureus, peptide MBI 21A1",0.125 µg/mL
same,MIC,"[2]; Staphylococcus aureus, read-out: Tobramycin MIC + Peptide, S. aureus, peptide MBI 22A1",4 µg/mL
same,MIC,"[2]; Staphylococcus aureus, read-out: Tobramycin MIC Alone, S. aureus",> 128 µg/mL
same,MIC,"[2]; Staphylococcus haemolyticus, read-out: Tobramycin MIC + Peptide, S. haemolyticus, peptide MBI 11A1CN",4 µg/mL
same,MIC,"[2]; Staphylococcus haemolyticus, read-out: Tobramycin MIC Alone, S. haemolyticus",8 µg/mL
same,MIC comb. (antibiotic agent),[3]; A. calcoaceticus,1 µg/mL
same,MIC,[3]; [4],16 µg/mL
same,MIC,[3]; [5],8 µg/mL
same,MIC,"[3]; Acinetobacter calcoaceticus, read-out: MIC alone (antibiotic agent), A. calcoaceticus",8 µg/mL
same,MIC,"[3]; Escherichia coli, read-out: Tobramycin MIC Alone, E. coli EC0006",8 µg/mL
same,Tobramycin MIC Alone,[3]; P. aeruginosa PA032,8 µg/mL
same,MIC comb. (antibiotic agent),[3]; P. aeruginosa,1 µg/mL
same,MIC,"[3]; Pseudomonas aeruginosa, read-out: MIC alone (antibiotic agent), P. aeruginosa",64 µg/mL
same,MIC,[3]; [6],32 µg/mL
same,MIC,[3]; [7],8 µg/mL
same,MIC,[3]; [8],32 µg/mL
same,MIC,[3]; [9],8 µg/mL
same,MIC,[3]; [10],16 µg/mL
same,MIC,"[3]; Pseudomonas aeruginosa, read-out: Tobramycin MIC Alone, P. aeruginosa PA031",16 µg/mL
same,MIC,[3]; [11],16 µg/mL
same,Tobramycin MIC Alone,[3]; S. maltophilia SMA031,128 µg/mL and >128 µg/mL
same,MIC,[3]; [12],> 128 µg/mL
same,MIC,"[3]; Staphylococcus epidermidis, read-out: Tobramycin MIC Alone, S. epidermidis SE071",> 128 µg/mL
same,MIC,[3]; [13],> 128 µg/mL
same,MIC,[3]; [14],> 128 µg/mL
same,MIC,[3]; [15],16 µg/mL
same,MIC,[3]; [16],128 µg/mL
same,MIC,[3]; [17],128 µg/mL
same,MIC,[3]; [18],64 µg/mL
same,MIC,[3]; [19],128 µg/mL
Gentamicin,Gentamicin MIC Alone,[1]; A. calcoaceticus AC001,8 µg/mL
same,Gentamicin MIC Alone,[1]; E. faecalis EFS008,>128 µg/mL and 128 µg/mL
same,Gentamicin MIC Alone,[1]; E. faecium EFM004,>128 µg/mL
same,Gentamicin MIC Alone,[1]; P. aeruginosa PA022,32 µg/mL and 16 µg/mL
same,Gentamicin MIC Alone,[1]; P. aeruginosa PA023,8 µg/mL
same,Gentamicin MIC Alone,[1]; P. aeruginosa PA041,8 µg/mL and 16 µg/mL
same,Gentamicin MIC Alone,[1]; S. aureus SA014 MRSA,32 µg/mL
same,Gentamicin MIC Alone,[1]; S. epidermidis SE071,16 µg/mL
same,Gentamicin MIC Alone,[1]; S. epidermidis SE074,128 µg/mL
same,Gentamicin MIC Alone,[1]; S. maltophilia (strain line r400 not shown),128 µg/mL
same,Gentamicin MIC Alone,[1]; S. maltophilia SMA016,>128 µg/mL and 128 µg/mL
same,Gentamicin MIC Alone,[1]; S. maltophilia SMA017,128 µg/mL
same,Gentamicin MIC Alone,[2]; S. aureus MRSA,32 µg/mL
same,Gentamicin MIC + Peptide,"[2]; S. aureus MRSA, peptide MBI 11B16CN",1 µg/mL
same,Gentamicin MIC Alone,[3]; A. baumannii ABI002,16 µg/mL and 32 µg/mL
same,Gentamicin MIC Alone,[3]; A. calcoaceticus AC001,8 µg/mL
same,Gentamicin MIC Alone,[3]; P. aeruginosa PA022,32 µg/mL
same,Gentamicin MIC Alone,[3]; P. aeruginosa PA023,8 µg/mL and 16 µg/mL
same,Gentamicin MIC Alone,[3]; P. aeruginosa PA041,8 µg/mL and 16 µg/mL
KKWWRRALQALKNGLPALIS [MBI 22A1],Peptide MIC + Tobramycin,[1]; S. aureus SA014 MRSA,2 µg/mL
same,Peptide MIC Alone,[1]; S. aureus SA014 MRSA,8 µg/mL
same,Tobramycin MIC + Peptide,[1]; S. aureus SA014 MRSA,4 µg/mL
same,Peptide MIC + Tobramycin,[1]; S. epidermidis SE072,8 µg/mL
same,Peptide MIC Alone,[1]; S. epidermidis SE072,16 µg/mL
same,Tobramycin MIC + Peptide,[1]; S. epidermidis SE072,0.125 µg/mL
same,Peptide MIC + Tobramycin,[1]; S. epidermidis SE073,8 µg/mL
same,Peptide MIC Alone,[1]; S. epidermidis SE073,16 µg/mL
same,Tobramycin MIC + Peptide,[1]; S. epidermidis SE073,0.125 µg/mL
same,Peptide MIC + Tobramycin,[1]; S. epidermidis SE080,0.125 µg/mL
same,Peptide MIC Alone,[1]; S. epidermidis SE080,2 µg/mL
same,Tobramycin MIC + Peptide,[1]; S. epidermidis SE080,16 µg/mL
same,Peptide MIC + Tobramycin,[1]; [20],8 µg/mL
same,Tobramycin MIC + Peptide,[1]; [20],0.5 µg/mL
same,Peptide MIC Alone,"[1]; S. maltophilia (strain code stands in r800, not shown), Tobramycin section",32 µg/mL
same,Peptide MIC + Tobramycin,[1]; S. maltophilia SMA030,8 µg/mL
same,Tobramycin MIC + Peptide,[1]; S. maltophilia SMA030,1 µg/mL
same,Peptide MIC Alone,"[1]; S. maltophilia SMA030, Tobramycin section",32 µg/mL
same,FIC,[1]; S. aureus SA014 MRSA,0.27
same,FIC,[1]; S. epidermidis SE072,0.50
same,FIC,[1]; S. epidermidis SE073,0.50
same,FIC,[1]; S. epidermidis SE080,0.56
same,FIC,[1]; [20],0.25
same,FIC,[1]; S. maltophilia SMA030,0.26
same,Peptide MIC + Tobramycin,[2]; S. aureus,2 µg/mL
same,Peptide MIC Alone,"[2]; S. aureus, Tobramycin section",8 µg/mL
same,FIC,"[2]; peptide + Tobramycin, S. aureus",0.27
same,Peptide MIC + Tobramycin,[3]; A. baumannii ABI001,2 µg/mL
same,Tobramycin MIC + Peptide,[3]; A. baumannii ABI001,4 µg/mL
same,Peptide MIC Alone,[3]; A. baumannii ABI001,4 µg/mL
same,Peptide MIC + Tobramycin,[3]; S. epidermidis SE072,8 µg/mL
same,Tobramycin MIC + Peptide,[3]; S. epidermidis SE072,0.125 µg/mL
same,Peptide MIC Alone,[3]; S. epidermidis SE072,16 µg/mL
same,Peptide MIC + Tobramycin,[3]; S. epidermidis SE073,8 µg/mL
same,Tobramycin MIC + Peptide,[3]; S. epidermidis SE073,0.125 µg/mL
same,Peptide MIC Alone,[3]; S. epidermidis SE073,16 µg/mL
same,Peptide MIC + Tobramycin,[3]; S. maltophilia SMA029,8 µg/mL and 16 µg/mL
same,Peptide MIC Alone,[3]; S. maltophilia SMA029,16 µg/mL and 32 µg/mL
same,FIC,[3]; A. baumannii ABI001,0.75
same,FIC,[3]; S. epidermidis SE072,0.50
same,FIC,[3]; S. epidermidis SE073,0.50
same,FIC,[3]; S. maltophilia SMA029,0.51 and 0.50
